# Patent US20160331721A1, “COMPOSITION FOR ALLEVIATING AND PREVENTING ALZHEIMER'S DISEASE” (Sunway Biotech Co., LTD, priority 2015, published 2016)
# What was measured:
# [1] = test system: Aβ-induced AD (Alzheimer's disease) rats; assay: Spatial probe test in water maze (Day 26); assay type: in vivo, SD rats
# Description: (§1) Therefore, above descriptions have completely introduce the fabricating way for this Alzheimer's disease alleviating and preventing composition. Next, a variety of experimental data will be presented in following paragraphs for proving the practicability of the Alzheimer's disease alleviating and preventing composition. Please refer to FIG. 4, which shoes an experiment grouping table.
# (§2) Please continuously refer to FIG. 5, where a daily schedule diagram for the animal experiments are provided.
# Next, spatial probe test is completed on Day 26. During the spatial probe test, the rest platform is removed out of the water tank. To carry out the spatial probe test, the test rat is put on the starting point 1 located in quadrant I; and then, letting the rat swim in the water tank for 90 seconds so as to record the rat's swimming route as well as the time for staying in quadrant IV. Please refer to FIG. 8, which provides swimming route records of the test rats as working the spatial navigation test.
# [2] = test system: Aβ-induced AD (Alzheimer's disease) rats; assay: Working memory test in water maze (Day 27); assay type: in vivo, SD rats; conditions: FIG. 10, compared to Aβ group
# Description: as §1, §2
smiles,measurement,setting,value
COc1cc2c(cc1OC)C(=O)C(CC1CCN(Cc3ccccc3)CC1)C2 (stereo not drawn) [Donepezil],swimming route in spatial probe test,"[1]; FIG. 8, compared to Aβ group (non-directional swimming), rest platform removed",directly swim into the quadrant IV
same,time spent for searching target quadrant,"[1]; FIG. 9, compared to Aβ group, target quadrant IV",the Aβ group spend more time to find the target quadrant
same,"escape latency, working memory test",[2],the Aβ group spend more time to find the target quadrant
